The subject of data set [1] is THP-1 monocytes. The data set is described as follows: Cellular uptake in THP-1 monocytes at low temperature (4 °C). To be noted: 20.0 μM, 2 h; for effect of BSA addition on cellular uptake at low temperature: serum-depleted medium with 0–200.0 μM BSA. The class given is cell-based, human. The protocol:
THP-1 monocytes preincubated in 10% FBS/RPMI medium were collected. The collected cells (2.5 × 10^6) were suspended in 1.0 mL of 10% PBS/RPMI medium containing 0, 0.2, 2.0, 20.0, 32.4, and 200.0 μM BSA on ice. This suspension was immediately mixed with 4.0 mL of 10% PBS/RPMI medium containing BSA and vitamin E. The final composition was 5.0 mL of 10% PBS/RPMI medium containing 0, 0.2, 2.0, 20.0, 32.4, or 200.0 μM BSA, and 20.0 μM α-Toc or α-T3. Cells were incubated at 4 °C with slow rotation in a tube rotator. After 2 h incubation, the cell lysate was prepared as above, and vitamin E and protein levels were measured.
Vitamin E was extracted from the cell lysates according to the procedure described in our previous study. Tocol (Tama Biochemical, Tokyo, Japan) was used as an internal standard. The extract was analyzed by liquid chromatography-tandem mass spectrometry (LC–MS/MS). The LC–MS/MS system consisted of an ExionLC system and a 4000QTRAP mass spectrometer (SCIEX, Tokyo, Japan). An Inersil SIL-100A-5 column (4.6 mm × 250 mm; GL Science, Tokyo, Japan) was eluted with a mobile phase consisting of hexane/1,4-dioxane/2-propanol (100:4:0.5, v/v/v). The flow rate was 1.0 mL/min, and the column temperature was 40 °C. Vitamin E was detected in the multiple reaction monitoring (MRM) mode (Table 1) under atmospheric pressure chemical ionization. The ion source parameters were as follows: curtain gas, 45.0 psi; collision gas, 8.0 psi; nebulizer current, − 3.0 μA; temperature, 350.0 °C; ion source gas 1, 60.0 psi; interface heater, ON.

A further data set deals with Jurkat cells. Further details: method as in PMID 15753172. The following applies: 1 μM α-Toc or α-T3, 24 hours; cited from earlier work.
For the next data set, the target named is T1, BSA (Bos taurus, UniProt P02769).
T1 construct: Bovine serum albumin (BSA; Fatty Acid/IgG/Protease-Free); purchased FUJIFILM Wako Pure Chemical Corporation, Ltd. (Osaka, Japan)
T1 sequence (P02769 25-607): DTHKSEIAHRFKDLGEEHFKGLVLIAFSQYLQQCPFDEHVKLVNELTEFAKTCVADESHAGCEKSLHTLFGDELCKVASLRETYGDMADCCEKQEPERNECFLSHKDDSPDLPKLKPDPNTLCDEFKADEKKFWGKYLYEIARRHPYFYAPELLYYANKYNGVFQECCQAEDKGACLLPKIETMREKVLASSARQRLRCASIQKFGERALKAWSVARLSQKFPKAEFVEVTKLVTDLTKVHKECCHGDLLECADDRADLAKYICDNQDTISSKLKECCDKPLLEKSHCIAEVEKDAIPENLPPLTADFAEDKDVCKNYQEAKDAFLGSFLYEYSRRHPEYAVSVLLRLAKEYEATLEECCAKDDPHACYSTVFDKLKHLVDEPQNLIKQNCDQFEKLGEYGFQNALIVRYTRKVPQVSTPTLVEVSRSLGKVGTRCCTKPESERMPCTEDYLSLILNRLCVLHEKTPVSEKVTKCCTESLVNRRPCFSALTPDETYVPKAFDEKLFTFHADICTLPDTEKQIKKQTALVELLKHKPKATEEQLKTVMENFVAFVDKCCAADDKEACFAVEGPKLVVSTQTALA
The data set is described as follows: Fluorescence quenching binding parameters between vitamin E and BSA. Further details: species or system bovine. To be noted: 2.0 μM BSA, room temperature, mean ± S.E. (n = 3); for Stern–Volmer constant (Ksv) / Kd: excitation 280 nm, emission 340 nm; for Kd: read-out: apparent binding constant (Ka) (converted). The protocol: The binding parameters of each Toc or T3 analog to BSA were measured with slight modifications to a previously described procedure[32],[34]. Each Toc or T3 analog was dissolved in DMSO at 10 mM, and added to a quartz cell containing 3.0 mL of 2.0 μM BSA stock solution to achieve a final concentration of 1.0–225.0 μM. […] Fluorescence spectra were recorded at room temperature using FP-6200 (JASCO, Tokyo, Japan) at an excitation wavelength of 280 nm and emission wavelengths from 300 to 500 nm. The intensity at 340 nm was used to calculate the Stern–Volmer constant (Ksv) by the following equation[39]: F0/F = 1 + Ksv[VE]. We also calculated the apparent binding constant (Ka) and the number of binding sites (n) by the following equation[40]: log((F0 − F)/F) = nlogKa − nlog(1/([VE] − [BSA](F0 − F)/F0)). Abbreviations in the above equations refer to follows: F0, initial fluorescence intensity; F, fluorescence intensity in the presence of each Toc or T3 analog; [VE], molar concentration of each Toc or T3 analog; [BSA], original BSA concentration. The same measurements were performed using a buffer solution without BSA, and the F values were calculated using the measured fluorescence intensity as a blank.

Data set [2] has as its system THP-1 monocytes. Put plainly: Cellular uptake of vitamin E in THP-1 monocytes (37 °C, LC–MS/MS). Format: cell-based, human. To be noted: 20.0 μM analog, serum-depleted medium with 0–200.0 μM BSA, 2 h. The protocol:
THP-1 monocytes (2.5 × 10^6 cells) were preincubated in 5.0 mL of 10% FBS/RPMI medium. The cells (2.5 × 10^6 cells) were also preincubated in 5.0 mL of FBS-free 10% PBS/RPMI medium in the absence or presence of 0.2, 2.0, 20.0, 32.4, and 200.0 μM BSA (each medium was prepared by dissolving the 2.0 mM BSA stock solution in 10% PBS/RPMI medium). After 24 h of these preincubations, 5.0 μL of each vitamin E stock solution was added to 10% FBS/RPMI medium or 10% PBS/RPMI medium at a final concentration of 20.0 μM and further incubated for 2 h. […] The incubated cells were collected by centrifugation and washed with PBS. The cells were resuspended in 0.6 mL water and homogenized on ice. A part of the lysate (0.5 mL) was used to analyze vitamin E (described below), and the remaining 0.1 mL was used to quantify protein by the BCA Protein Assay (Thermo Fisher Scientific).
Vitamin E was extracted from the cell lysates according to the procedure described in our previous study. Tocol (Tama Biochemical, Tokyo, Japan) was used as an internal standard. The extract was analyzed by liquid chromatography-tandem mass spectrometry (LC–MS/MS). The LC–MS/MS system consisted of an ExionLC system and a 4000QTRAP mass spectrometer (SCIEX, Tokyo, Japan). […] Vitamin E was detected in the multiple reaction monitoring (MRM) mode (Table 1) under atmospheric pressure chemical ionization. […]

A further data set concerns PC-3 cells. Further details: method as in PMID 21400505. To be noted: 50 μM γ-Toc or 10 μM γ-T3, 6 hours; cited from earlier work.
Another data set concerns LNCaP cells. Details: method as in PMID 21400505. To be noted: 50 μM γ-Toc or 10 μM γ-T3, 6 hours; cited from earlier work.
Data set [3] deals with THP-1 monocytes. Put plainly: Cellular uptake in THP-1 monocytes with ATP synthesis inhibitors. Format: cell-based, human. The following applies: 10.0 μM vitamin E, 10.0 μM BSA, 1 mM DNP or 10 mM NaN3 + 5 mM 2DG, 1 h, 37 °C, vs control. The protocol:
To further investigate cellular uptake mechanism, cell culture study was conducted using two ATP synthesis inhibitors as follows: (1) 1 mM 2,4-dinitrophenol or (2) a mixture of 10 mM sodium azide and 5 mM 2-deoxy-D-glucose[45]. THP-1 monocytes (2.5 × 10^6) preincubated in 10% FBS/RPMI medium were collected, suspended in 1.0 mL of PBS(+)[45] containing each inhibitor, and preincubated for 10 min at 37 °C under slow rotation in a tube rotator. […] Control samples were similarly prepared without the addition of inhibitors and incubated for 1 h. Vitamin E and protein levels were measured as described above.
Figure S1 The effect of two ATP synthesis inhibitors (1 mM 2,4-dinitrophenol (DNP) or a mixture of 10 mM sodium azide and 5 mM 2-deoxy-D-glucose (NaN3+2DG)) on the […]
Cells were incubated in PBS(+) […]
hour. Control samples were similarly incubated without the addition of inhibitors. […]
the main article. Values are expressed as mean ± SE of three independent experiments.
The statical significance of the results was analyzed using Dunnett's test, where p < 0.05 was considered statistically significant . […]
and samples treated with ATP synthesis inhibitor.
(1 picture or pasted object on this page, not shown here)

The text below walks through data of paper PMC10164177, “The difference in the cellular uptake of tocopherol and tocotrienol is influenced by their affinities to albumin” (Scientific Reports, 2023).

Regarding `CC(C)=CCC/C(C)=C/CC/C(C)=C/CC[C@]1(C)CCc2c(C)c(O)c(C)c(C)c2O1` [α-T3], the “cellular concentration compared with α-Toc at low temperature” value in the data set on THP-1 monocytes [1] (BSA-containing medium) is “slightly higher than that of α-Toc”. Moreover, the “effect of BSA addition on cellular uptake at low temperature” value in the data set on THP-1 monocytes [1] is “did not observe the BSA-induced increase”. Moreover, the “cellular uptake relative to α-Toc” value with Jurkat cells is 6.5 fold. On BSA, the “Stern–Volmer constant (Ksv)” value is on record as 1.19 ± 0.07 × 10^4 M^−1, the Kd is 69.4 µM and the “number of binding site (n)” value was 0.70 ± 0.04.
In the case of `Cc1c(C)c2c(c(C)c1O)CC[C@@](C)(CCC[C@H](C)CCC[C@H](C)CCCC(C)C)O2` [α-Toc], in the data set on THP-1 monocytes [1], the “effect of BSA addition on cellular uptake at low temperature” value was “reduced upon the addition of BSA”. Moreover, the “effect of BSA addition on cellular concentration” value in the data set on THP-1 monocytes [2] is “particularly pronounced”. Besides, at BSA, the “Stern–Volmer constant (Ksv)” value was 0.93 ± 0.06 × 10^4 M^−1, the Kd is 99 µM and the “number of binding site (n)” value is reported as 0.69 ± 0.02.
Turning to `CC(C)=CCC/C(C)=C/CC/C(C)=C/CC[C@]1(C)CCc2c(C)c(O)cc(C)c2O1` [β-T3], on BSA, the “Stern–Volmer constant (Ksv)” value is given as 1.39 ± 0.13 × 10^4 M^−1, the Kd is 59.5 µM and the “number of binding site (n)” value was found to be 0.76 ± 0.00.
Consider `Cc1cc(O)c(C)c2c1O[C@](C)(CCC[C@H](C)CCC[C@H](C)CCCC(C)C)CC2` [β-Toc], for which, on BSA, the “Stern–Volmer constant (Ksv)” value is given as 1.00 ± 0.02 × 10^4 M^−1, the Kd was 95.2 µM and the “number of binding site (n)” value amounted to 0.69 ± 0.01.
For `CC(C)=CCC/C(C)=C/CC/C(C)=C/CC[C@]1(C)CCc2cc(O)c(C)c(C)c2O1` [γ-T3], the “cellular uptake compared with γ-Toc” value in the data set with PC-3 cells is “higher cellular uptake than γ-Toc”. Moreover, on BSA, the “Stern–Volmer constant (Ksv)” value was 1.35 ± 0.01 × 10^4 M^−1, the Kd is 62.1 µM and the “number of binding site (n)” value is 0.74 ± 0.02. The “cellular uptake compared with γ-Toc” value in the data set on LNCaP cells is on record as “higher cellular uptake than γ-Toc”.
With `Cc1c(O)cc2c(c1C)O[C@](C)(CCC[C@H](C)CCC[C@H](C)CCCC(C)C)CC2` [γ-Toc], at BSA, the “Stern–Volmer constant (Ksv)” value is given as 0.82 ± 0.01 × 10^4 M^−1, the Kd was 115 µM and the “number of binding site (n)” value was 0.71 ± 0.02.
`CC(C)=CCC/C(C)=C/CC/C(C)=C/CC[C@]1(C)CCc2cc(O)cc(C)c2O1` [δ-T3]: in the data set with THP-1 monocytes [2], the “effect of BSA addition on cellular concentration” value was “increase the most”. For the same compound, the “effect of ATP synthesis inhibitors on cellular uptake” value in the data set on THP-1 monocytes [3] is “No significance”. Besides, at BSA, the “Stern–Volmer constant (Ksv)” value is given as 1.51 ± 0.02 × 10^4 M^−1, the Kd is 55.2 µM and the “number of binding site (n)” value is reported as 0.78 ± 0.01.
For the compound `Cc1cc(O)cc2c1O[C@](C)(CCC[C@H](C)CCC[C@H](C)CCCC(C)C)CC2` [δ-Toc], in the data set with THP-1 monocytes [3], the “effect of ATP synthesis inhibitors on cellular uptake” value is on record as “No significance”. On BSA, the “Stern–Volmer constant (Ksv)” value is recorded as 0.89 ± 0.04 × 10^4 M^−1, the Kd was 105 µM and the “number of binding site (n)” value was 0.71 ± 0.01.
